# Tested on: ABCA1 mRNA
# Test: ABCA1 mRNA induction in THP-1 cells, QuantiGene branched DNA assay
# Format: cell-based
# Conditions: 10 μM test compound, 18-20 hours
# Procedure: Modulation of expression of ABCA1 mRNA levels by the compounds of the invention was determined in the following assays.
# Induction of ABC1 in THP-1 cells, was measured using QuantiGene® branched DNA assay as per manufacturer's instructions. Cultures of THP-1 were grown to subconfluence in DMEM/10% FBS before replacement with DMEM/BSA and 10 and 3 μM concentrations of the test compounds in DMSO for 18-20 hours. After treatment of cells with compounds, the cells were lysed with lysis buffer at 37° C. for 20 minutes. The cell lysate and ABCA1 specific probe (Genospectra, Inc., Fremont, Calif.) mix were added to the 96 well capture plate and hybridized at 53° C. for 16-18 hours. The signal was amplified using the amplifier and label probes provided with the QuantiGene® assay followed by addition of a luminescent alkaline phosphatase substrate, dioxitane. Luminescence was quantified in Victor V plate reader.
# Step 1 • Cells are lysed to release mRNA in the presence of target probes. Target mRNA from lysed cells was then captured by hybridization and transferred to the Capture Plate.
# Step 2 • Signal amplification was performed by hybridization of the bDNA Amplifier and Label Probe.
# Step 3 • Addition of chemiluminescence substrate yielded a QuantiGene® signal proportional to the amount of mRNA present in the sample.
# Table 1 presents the relative fold increase in ABCA1 expression over DMSO for various compounds of the invention when tested at a concentration of […].
row,Compound,ABCA1 Induction Fold Increase over DMSO Vehicle [FOLD INCREASE]
1,"COc1cccc2c1C1Nc3ccc(C(O)(C(F)(F)F)C(F)(F)F)cc3C(C)(C)C1CO2 (stereo not shown) [Number 24, 1,1,1,3,3,3-hexafluoro-2-(1-methoxy-7,7-dimethyl(7,12,12a,6a-tetrahydrochromano[4,3-b]quinolin-9-yl))propan-2-ol]",6.5
2,"CCOc1ccc2c(c1)C(C)(C)[C@H]1COc3cccc(OC)c3[C@H]1N2 [Number 56, (12aS,6aR)-9-ethoxy-1-methoxy-7,7-dimethyl-7,12,12a,6a-tetrahydrochromano[4,3-b]quinoline]",4.8
3,"COC(=O)c1cccc(-c2ccc3c(c2)C(C)(C)[C@H]2COc4cccc(OC)c4[C@H]2N3)c1 [Number 113, methyl 3-((12aS,6aR)-1-methoxy-7,7-dimethyl-7,12,12a,6a-tetrahydrochromano[4,3-b]quinolin-9-yl)benzoate]",1.5
4,"CCOc1cccc2c1OCC1C2Nc2ccc(C(N)=O)cc2C1(C)C (stereo not shown) [Number 30, 4-ethoxy-7,7-dimethyl-7,12,12a,6a-tetrahydrochromano[4,3-b]quinoline-9-carboxamide]",5.3
5,"COc1ccc(Br)c2c1OCC1C2Nc2ccc(-c3cnco3)cc2C1(C)C (stereo not shown) [Number 79, 1-bromo-4-methoxy-7,7-dimethyl-9-(1,3-oxazol-5-yl)-7,12,12a,6a-tetrahydrochromano[4,3-b]quinoline]",4.1
6,"COc1cccc2c1C1Nc3ccc(C(C)=O)cc3C(C)(C)C1CO2 (stereo not shown) [Number 43, 1-(1-methoxy-7,7-dimethyl-7,12,12a,6a-tetrahydrochromano[4,3-b]quinolin-9-yl)ethan-1-one]",4.1
7,"COc1cccc2c1[C@H]1Nc3ccccc3C(C)(C)[C@H]1CO2 [Number 53, (12aS,6aR)-1-methoxy-7,7-dimethyl-7,12,12a,6a-tetrahydrochromano[4,3-b]quinoline]",3.5
8,"CC(C)=CCOC(=O)c1ccc2c(c1)C1Nc3ccc(C(O)(C(F)(F)F)C(F)(F)F)cc3C(C)(C)C1CO2 (stereo not shown) [Number 13, 3-methylbut-2-enyl 7,7-dimethyl-9-[2,2,2-trifluoro-1-hydroxy-1-(trifluoromethyl)ethyl]-7,12,12a,6a-tetrahydrochromano[4,3-b]quinoline-2-carboxylate]",3.4
9,"COc1cc(Br)cc2c1OC[C@H]1[C@H]2Nc2ccc(C(O)(C(F)(F)F)C(F)(F)F)cc2C1(C)C [Number 66, 2-((12aR,6aR)-2-bromo-4-methoxy-7,7-dimethyl(7,12,12a,6a-tetrahydrochromano[4,3-b]quinolin-9-yl))-1,1,1,3,3,3-hexafluoropropan-2-ol]",2.5
10,"CCOc1cccc2c1OCC1C2Nc2ccc(C(C)=O)cc2C1(C)C (stereo not shown) [Number 42, 1-(4-ethoxy-7,7-dimethyl-7,12,12a,6a-tetrahydrochromano[4,3-b]quinolin-9-yl)ethan-1-one]",3.8
11,"COC(=O)/C=C/c1ccc2c(c1)C1Nc3ccc(C(O)(C(F)(F)F)C(F)(F)F)cc3C(C)(C)C1CO2 (stereo not shown) [Number 35, methyl (2E)-3-{7,7-dimethyl-9-[2,2,2-trifluoro-1-hydroxy-1-(trifluoromethyl)ethyl](7,12,12a,6a-tetrahydrochromano[4,3-b]quinolin-2-yl)}prop-2-enoate]",4.3
12,"CC1(C)c2cc(C(O)(C(F)(F)F)C(F)(F)F)ccc2NC2c3cccc(F)c3OCC21 (stereo not shown) [Number 51, 1,1,1,3,3,3-hexafluoro-2-(4-fluoro-7,7-dimethyl(7,12,12a,6a-tetrahydrochromano[4,3-b]quinolin-9-yl))propan-2-ol]",7.8
13,"COc1cccc2c1C1Nc3ccc(-c4nncn4C)cc3C(C)(C)C1CO2 (stereo not shown) [Number 74, 1-methoxy-7,7-dimethyl-9-(4-methyl(1,2,4-triazol-3-yl))-7,12,12a,6a-tetrahydrochromano[4,3-b]quinoline]",7.9
14,"CC1(C)c2cc(C(O)(C(F)(F)F)C(F)(F)F)ccc2N[C@H]2c3ccccc3OC[C@H]21 [Number 70, 2-((6aS,12aR)-7,7-dimethyl(7,12,12a,6a-tetrahydrochromano[4,3-b]quinolin-9-yl))-1,1,1,3,3,3-hexafluoropropan-2-ol]",4.0
15,"COc1cccc2c1OCC1C2Nc2ccc(Br)cc2C1(C)C (stereo not shown) [Number 75, 9-bromo-4-methoxy-7,7-dimethyl-7,12,12a,6a-tetrahydrochromano[4,3-b]quinoline]",7.4
16,"COc1cccc2c1[C@H]1Nc3ccc(-c4ccc(/C=C/C(=O)O)cc4)cc3C(C)(C)[C@H]1CO2 [Number 115, (2E)-3-[4-((12aS,6aR)-1-methoxy-7,7-dimethyl(7,12,12a,6a-tetrahydrochromano[4,3-b]quinolin-9-yl))phenyl]prop-2-enoic acid]",2.2
17,"COc1cccc2c1[C@H]1Nc3ccc(-n4cc(C(=O)N5CCS(=O)(=O)CC5)cn4)cc3C(C)(C)[C@H]1CO2 [Number 138, 1-((6aR,12aS)-6a,7,12,12a-tetrahydro-1-methoxy-7,7-dimethyl-6H-chromeno[4,3-b]quinolin-9-yl)1-1H-pyrazole-4-((1,1-dione-1,4-thiazaperhydroin-yl)methanone)]",7.4

# Same assay, conditions: Homo sapiens, 10 μM test compound, 18-20 hours, read-out: ABCA1 Induction Fold Increase over DMSO Vehicle
row,Compound,fold induction at 10 µM
1,"COC(=O)c1ccc2c(c1)C(C)(C)[C@H]1COc3c(OC)cc(-c4cn[nH]c4)cc3[C@H]1N2 [Number 161, (6aR,12aS)-methyl 6a,7,12,12a-tetrahydro-4-methoxy-7,7-dimethyl-2-(1H-pyrazol-4-yl)-6H-chromeno[4,3-b]quinoline-9-carboxylate]",8.1
2,"COc1cccc2c1[C@@H]1[C@@H](CO2)C(C)(C)c2ccccc2N1C1CCCCC1 [Number 167, (6aS,12aS)-12-cyclohexyl-6a,7,12,12a-tetrahydro-1-methoxy-7,7-dimethyl-6H-chromeno[4,3-b]quinoline]",7.9
3,"COc1cccc2c1[C@H]1Nc3ccc(-n4cc(C(=O)O)cn4)cc3C(C)(C)[C@H]1CO2 [Number 136, 1-((6aR,12aS)-6a,7,12,12a-tetrahydro-1-methoxy-7,7-dimethyl-6H-chromeno[4,3-b]quinolin-9-yl)-1H-pyrazole-4-carboxylic acid]",4.1
4,"COc1cccc2c1[C@@H]1[C@H](CO2)C(C)(C)c2ccccc2N1C1CCCCC1 [Number 166, (6aR,12aS)-12-cyclohexyl-6a,7,12,12a-tetrahydro-1-methoxy-7,7-dimethyl-6H-chromeno[4,3-b]quinoline]",12.5
5,"CCCCN1c2ccccc2C(C)(C)[C@@H]2COc3cccc(OC)c3[C@H]21 [Number 175, (6aS,12aS)-12-butyl-6a,7,12,12a-tetrahydro-1-methoxy-7,7-dimethyl-6H-chromeno[4,3-b]quinoline]",1.5
6,"CCS(=O)(=O)N1CCN(C(=O)c2ccc3c(c2)C(C)(C)[C@@H]2COc4c(OC)cccc4[C@H]2N3)CC1 [Number 133, ((6aS,12aS)-4-methoxy-6a,7,12,12a-tetrahydro-7,7-dimethyl-6H-chromeno[4,3-b]quinolin-9-yl)(4-ethanesulfonylpiperazin-1-yl)methanone]",3.8
7,"COc1cc(-c2cn[nH]c2)cc2c1OC[C@H]1[C@@H]2Nc2ccc(-c3cnco3)cc2C1(C)C [Number 159, (6aR,12aS)-6a,7,12,12a-tetrahydro-4-methoxy-7,7-dimethyl-9-(oxazol-5-yl)-2-(1H-pyrazol-4-yl)-6H-chromeno[4,3-b]quinoline]",7.6
8,"COc1cccc2c1OC[C@H]1[C@@H]2Nc2ccc(C(=O)N3CCOCC3)cc2C1(C)C [Number 119, ((6aR,12aS)-6a,7,12,12a-tetrahydro-4-methoxy-7,7-dimethyl-6H-chromeno[4,3-b]quinolin-9-yl)(morpholino)methanone]",7.5
9,"COc1cc(-c2cn[nH]c2)cc2c1OC[C@H]1[C@@H]2Nc2ccc(C#N)cc2C1(C)C [Number 182, (6aR,12aS)-6a,7,12,12a-tetrahydro-4-methoxy-7,7-dimethyl-2-(1H-pyrazol-4-yl)-6H-chromeno[4,3-b]quinoline-9-carbonitrile]",4.6
10,"CCOP(=O)(Cc1ccc2c(c1)C(C)(C)C1COc3cccc(OC)c3C1N2)OCC (stereo not shown) [Number 180, diethyl(6a,7,12,12a-tetrahydro-1-methoxy-7,7-dimethyl-6H-chromeno[4,3-b]quinolin-9-yl)methylphosphonate]",2.2
11,"COc1cccc2c1OC[C@H]1[C@@H]2Nc2ccc(-c3ccc(F)cc3)cc2C1(C)C [Number 99, (12aS,6aR)-9-(4-fluorophenyl)-4-methoxy-7,7-dimethyl-7,12,12a,6a-tetrahydrochromano[4,3-b]quinoline]",1.7

# — patent US7432276B2, “ABCA1 elevating compounds” (CV Therapeutics, Inc., priority 2005, dated 2008)
